According to patent US20250387375A1, “SOFALCONE DERIVATIVES AND MEDICAL USE THEREOF” (KAOHSIUNG MEDICAL UNIVERSITY, priority 2024, published 2025):

System: human platelet suspension (platelet aggregation caused by collagen)
Test: Platelet aggregation reaction test, collagen-induced
Type: cell-based
Details: read-out: Collagen IC 50
Procedure: (§1) Blood samples were collected from healthy donors, and acid-citrate-dextrose (ACD) solution was used as an anticoagulant. The blood samples were centrifuged to obtain platelets, and residual plasma was removed by washing to prepare platelet suspension.
(§2) In the experimental method, a platelet aggregometer (Chrono-Log Co., Havertown, PA, USA) was used for tests. The compound to be tested was added to the platelet suspension and reacted for 3 minutes at 37° C. with stirring (1200 rpm). Then, platelet stimulator U46619 or collagen was added to initiate platelet aggregation, and the test time was 5 minutes. The principle of the platelet aggregation test was: when platelets were stimulated to induce aggregation reaction, the light transmission of the platelet suspension would increase; by calculating changes in light transmission of the platelet suspension before and after being stimulated, the percentage of platelet aggregation could be obtained.

| IC50 | SMILES |
| --- | --- |
| 15.5 µM | O=C(O)COc1ccccc1C(=O)C=Cc1cccs1 [Compound 57] |
| 40.9 µM | O=C(O)COc1ccccc1C(=O)C=Cc1ccc(Br)s1 [Compound 58] |
| 33.8 µM | O=C(O)COc1ccccc1C(=O)C=Cc1ccccn1 [Compound 59] |
| 39.8 µM | O=C(O)COc1ccccc1C(=O)C=Cc1cccnc1 [Compound 60] |
| 0.56 µM | CCOC(=O)CCCCCOc1ccccc1C(=O)C=Cc1cccs1 [Compound 61] |
| 0.58 µM | CCOC(=O)CCCCCOc1ccccc1C(=O)C=Cc1ccco1 [Compound 62] |
| 6.05 µM | CCOC(=O)CCCCCOc1ccccc1C(=O)C=Cc1ccccn1 [Compound 63] |
| 3.85 µM | CCOC(=O)CCCOc1cc(OCC=C(C)C)ccc1C(=O)C=Cc1cccs1 [Compound 64] |
| 3.13 µM | CCOC(=O)COc1ccccc1C(=O)C=Cc1ccco1 [Compound 65] |
| 2.86 µM | CCOC(=O)COc1ccccc1C(=O)C=Cc1cccs1 [Compound 66] |
| 5.35 µM | CCOC(=O)COc1ccccc1C(=O)C=Cc1ccc(Br)s1 [Compound 67] |
| > 100 µM | COC(=O)COc1cc(OCC=C(C)C)ccc1C(=O)C=Cc1ccc(OCC=C(C)C)cc1 [Compound 68] |
| 3.42 µM | COC(=O)COc1cc(O)ccc1C(=O)C=Cc1ccc(O)cc1 [Compound 69] |
| 6.55 µM | O=C(O)CCCOc1cc(O)ccc1C(=O)C=Cc1ccc(O)cc1 [Compound 70] |
| > 100 µM | O=C(O)COc1cc(O)ccc1C(=O)C=Cc1ccc(O)cc1 [Compound 71] |
| 11.6 µM | COC(=O)COc1cc(O)ccc1C(=O)CCc1ccc(O)cc1 [Compound 72] |
| 62.9 µM | COC(=O)CCCOc1cc(OCC=C(C)C)ccc1C(=O)CCc1ccc(OCC=C(C)C)cc1 [Compound 73] |
| > 100 µM | COC(=O)COc1cc(OCC=C(C)C)ccc1C(=O)CCc1ccc(OCC=C(C)C)cc1 [Compound 74] |
| 1.3 µM | CC(C)=CCOc1ccc(CCC(=O)c2ccc(OCC=C(C)C)cc2OCCCC(=O)O)cc1 [Compound 75] |
| 31 µM | CC(C)=CCOc1ccc(CCC(=O)c2ccc(OCC=C(C)C)cc2OCC(=O)O)cc1 [Compound 76] |
| 43.6 µM | O=C(O)CCCCCOc1ccccc1C(=O)C=Cc1ccccc1 [Compound 77] |
| 7.7 µM | Nc1ccsc1C=CC(=O)c1ccccc1OCCCCCC(=O)O [Compound 78] |
| 62.7 µM | O=C(O)CCCCCOc1ccccc1C(=O)C=Cc1nccs1 [Compound 80] |
| 23.8 µM | COC(=O)COc1cc(OC(C)=O)ccc1C(=O)C=Cc1ccc(OC(C)=O)cc1 [Compound 81] |
| ≥ 100 µM | COC(=O)COc1cc(OCC(=O)c2ccccc2)ccc1C(=O)C=Cc1ccc(OCC(=O)c2ccccc2)cc1 [Compound 82] |
| 8.31 µM | CCOC(=O)COc1ccc(C=CC(=O)c2ccc(OCC(=O)OCC)cc2OCC(=O)OC)cc1 [Compound 83] |
| > 100 µM | CCOC(=O)COc1ccc(C=CC(=O)c2ccc(OCC(=O)OCC)cc2OCC(=O)O)cc1 [Compound 84] |
| > 100 µM | COC(=O)COc1cc(OCc2ccccc2)ccc1C(=O)C=Cc1ccc(OCc2ccccc2)cc1 [Compound 85] |
| > 100 µM | COC(=O)COc1cc(OCc2ccc(F)cc2)ccc1C(=O)C=Cc1ccc(OCc2ccc(F)cc2)cc1 [Compound 86] |

System: human platelet suspension (platelet aggregation caused by TxA2 agonist U46619)
Test: Platelet aggregation reaction test, U46619-induced
Type: cell-based
Details: not given
Procedure: as §1, §2

| IC50 | SMILES |
| --- | --- |
| 71.5 µM | O=C(O)COc1ccccc1C(=O)C=Cc1cccs1 [Compound 57] |
| 72.6 µM | O=C(O)COc1ccccc1C(=O)C=Cc1ccc(Br)s1 [Compound 58] |
| 72.1 µM | O=C(O)COc1ccccc1C(=O)C=Cc1ccccn1 [Compound 59] |
| 29.3 µM | O=C(O)COc1ccccc1C(=O)C=Cc1cccnc1 [Compound 60] |
| 0.54 µM | CCOC(=O)CCCCCOc1ccccc1C(=O)C=Cc1cccs1 [Compound 61] |
| 0.48 µM | CCOC(=O)CCCCCOc1ccccc1C(=O)C=Cc1ccco1 [Compound 62] |
| 4.57 µM | CCOC(=O)CCCCCOc1ccccc1C(=O)C=Cc1ccccn1 [Compound 63] |
| 5.87 µM | CCOC(=O)CCCOc1cc(OCC=C(C)C)ccc1C(=O)C=Cc1cccs1 [Compound 64] |
| 78.4 µM | CCOC(=O)COc1ccccc1C(=O)C=Cc1ccco1 [Compound 65] |
| 70.2 µM | CCOC(=O)COc1ccccc1C(=O)C=Cc1cccs1 [Compound 66] |
| > 100 µM | CCOC(=O)COc1ccccc1C(=O)C=Cc1ccc(Br)s1 [Compound 67] |
| > 100 µM | COC(=O)COc1cc(OCC=C(C)C)ccc1C(=O)C=Cc1ccc(OCC=C(C)C)cc1 [Compound 68] |
| 27.8 µM | COC(=O)COc1cc(O)ccc1C(=O)C=Cc1ccc(O)cc1 [Compound 69] |
| 5.43 µM | O=C(O)CCCOc1cc(O)ccc1C(=O)C=Cc1ccc(O)cc1 [Compound 70] |
| 65.4 µM | O=C(O)COc1cc(O)ccc1C(=O)C=Cc1ccc(O)cc1 [Compound 71] |
| 47.6 µM | COC(=O)COc1cc(O)ccc1C(=O)CCc1ccc(O)cc1 [Compound 72] |
| 10.7 µM | COC(=O)CCCOc1cc(OCC=C(C)C)ccc1C(=O)CCc1ccc(OCC=C(C)C)cc1 [Compound 73] |
| > 100 µM | COC(=O)COc1cc(OCC=C(C)C)ccc1C(=O)CCc1ccc(OCC=C(C)C)cc1 [Compound 74] |
| 0.35 µM | CC(C)=CCOc1ccc(CCC(=O)c2ccc(OCC=C(C)C)cc2OCCCC(=O)O)cc1 [Compound 75] |
| 12.6 µM | CC(C)=CCOc1ccc(CCC(=O)c2ccc(OCC=C(C)C)cc2OCC(=O)O)cc1 [Compound 76] |
| 5.54 µM | O=C(O)CCCCCOc1ccccc1C(=O)C=Cc1ccccc1 [Compound 77] |
| 5.87 µM | Nc1ccsc1C=CC(=O)c1ccccc1OCCCCCC(=O)O [Compound 78] |
| 51.5 µM | O=C(O)CCCCCOc1ccccc1C(=O)C=Cc1nccs1 [Compound 80] |
| 28 µM | COC(=O)COc1cc(OC(C)=O)ccc1C(=O)C=Cc1ccc(OC(C)=O)cc1 [Compound 81] |
| > 100 µM | COC(=O)COc1cc(OCC(=O)c2ccccc2)ccc1C(=O)C=Cc1ccc(OCC(=O)c2ccccc2)cc1 [Compound 82] |
| 8.62 µM | CCOC(=O)COc1ccc(C=CC(=O)c2ccc(OCC(=O)OCC)cc2OCC(=O)OC)cc1 [Compound 83] |
| 80.8 µM | CCOC(=O)COc1ccc(C=CC(=O)c2ccc(OCC(=O)OCC)cc2OCC(=O)O)cc1 [Compound 84] |
| > 100 µM | COC(=O)COc1cc(OCc2ccccc2)ccc1C(=O)C=Cc1ccc(OCc2ccccc2)cc1 [Compound 85] |
| > 100 µM | COC(=O)COc1cc(OCc2ccc(F)cc2)ccc1C(=O)C=Cc1ccc(OCc2ccc(F)cc2)cc1 [Compound 86] |
